Measurements as given in patent US20140155415A1, “BENZ[…] BENZODIOXINE COMPOUNDS THAT INTERACT WITH G[…] FOR THE TREATMENT OF DIABETES” (priority 2011, published 2014).

Experiments:
[1] = target: T1, GK-GKRP (glucokinase / glucokinase regulatory protein) (Homo sapiens, UniProt Q14397); experiment: GKRP LC MS/MS Biochemical Assay (LCMS/MS); details: formation of 13C-glucose-6-phosphate from 13C-glucose by LC MS/MS, human His-hepatic GK, fructose-6-phosphate
T1 sequence (Q14397 1-625): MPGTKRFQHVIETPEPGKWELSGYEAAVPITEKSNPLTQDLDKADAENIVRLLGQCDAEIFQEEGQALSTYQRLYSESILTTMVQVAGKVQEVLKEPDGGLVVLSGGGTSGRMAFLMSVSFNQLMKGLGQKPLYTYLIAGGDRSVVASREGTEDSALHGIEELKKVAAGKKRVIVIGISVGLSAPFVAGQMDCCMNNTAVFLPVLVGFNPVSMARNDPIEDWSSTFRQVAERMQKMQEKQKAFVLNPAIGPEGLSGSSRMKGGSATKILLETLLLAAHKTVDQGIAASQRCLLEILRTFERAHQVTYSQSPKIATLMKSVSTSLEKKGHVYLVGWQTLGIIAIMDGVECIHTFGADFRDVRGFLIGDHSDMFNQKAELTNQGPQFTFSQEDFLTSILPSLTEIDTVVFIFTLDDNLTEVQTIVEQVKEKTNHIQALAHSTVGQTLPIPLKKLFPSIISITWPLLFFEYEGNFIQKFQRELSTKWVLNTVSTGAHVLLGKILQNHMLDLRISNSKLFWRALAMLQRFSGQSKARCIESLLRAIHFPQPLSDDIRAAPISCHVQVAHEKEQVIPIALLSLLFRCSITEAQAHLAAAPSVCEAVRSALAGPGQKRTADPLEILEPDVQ
Protocol: GKRP LC MS/MS Biochemical Assay (LCMS/MS)
This assay is used to directly measure the formation of ^13C-glucose-6-phosphate from ^13C-glucose by LC MS/MS. Begin by preparing the following solutions: Compound Buffer (CB): 50 mM Tris, pH 7.5/4 mM MgCl2/6% DMSO/fresh 10 mM DTT from 1M frozen stock. Enzyme Buffer (EB): 50 mM Tris, pH 7.5/4 mM MgCl2/6% DMSO/fresh 0.1% BSA/fresh 0.01% Brij-35 (10% BSA and 1% Brij-35 stock). GK (Glucokinase) Working Stock (5×): Dilute human His-hepatic GK to 30 nM in EB buffer. […] Seal the plate and incubate for 30 minutes at room temperature while mixing. After 30 minutes add 10 μl of GK Working Stock (5×). Re-seal the plate and incubate for another 30 minutes at room temperature while mixing. After the second 30 minutes, stop the reaction by the addition of 50 μl of 100% acetonitrile, seal, and mix for 5-10 minutes. Run 10 μl of this sample through the LC MS/MS (API 3200, Applied Biosystems, Carlsbad, Calif.). […]
(§1) In the Examples, the assays are referred to as “LCMS/MS” or “Binding.”

[2] = target: T2, GK-GKRP (interaction between glucokinase and glucokinase regulatory protein) (Homo sapiens, UniProt Q14397); experiment: GK-GKRP Binding Assay (Binding), AlphaScreen; details: avi-tagged GKRP, GK-fluorescein, AlphaScreen beads, 1 μM sorbitol-6-phosphate; read-out: GK-GKRP IC50 (Binding)
T2 construct: made in house; host or cells: GKRP: baculovirus system
T2 sequence (Q14397 1-625): T1 sequence (Q14397 1-625)
Protocol: GK-GKRP Binding Assay Protocol (Binding)
This assay is used to directly measure the interaction between glucokinase (GK) and glucokinase regulatory protein (GKRP). Begin by preparing the following solutions. Assay Buffer: 20 mM Tris, pH 7.5/0.05% BSA/1 mM DTT/1 μM sorbitol-6-phosphate. […] Combine the following reagents in a white 96-well half area plate. Pipette 14 μl of the diluted avi-tagged GKRP into each well. Add 1 μl of compound to be tested and incubate at room temperature for 20 minutes. After 20 minutes, add 5 μl of assay buffer containing 6 nM GK-fluorescein. […] Incubate in a dark room for 2 hours at room temperature. After 2 hours read the plate using an Envision plate reader (Perkin Elmer, Waltham Mass.).
Recombinant human glucokinase (hepatic) was purified and formulated in 50 mM Tris (pH 7.5), 150 mM NaCl and 20 mM glucose previous to labeling with fluorescein. […] Unreacted dye was removed by extensive dialysis into the final formulation buffer: 25 mM Tris (pH 7.2), 150 mM NaCl, 10% glycerol and 2 mM DTT. The human glucokinase regulatory protein construct was designed with a C-terminal avitag and was expressed in a baculovirus system. Purified GKRP was incubated overnight with recombinant biotin ligase in the presence of D-biotin, ATP and MgCl2. GKRP was isolated from reaction components by chromatography on a Superdex 200 size exclusion column into: 50 mM HEPES, 150 mM NaCl and 5 mM DTT. […] Proteins were quantitated according to their calculated molar extinction coefficients at A280 and were stored at −80° C.
as §1

O=S(=O)(NC(c1ccccn1)c1cc2ccccc2o1)c1ccc2c(c1)OCCCO2 (racemic) [Example 25, N-(1-benzofuran-2-yl(2-pyridinyl)methyl)-3,4-dihydro-2H-1,5-benzo dioxepine-7-sulfonamide]
EC50 [1]: 270 nM | IC50 [2]: 1400 nM

Cc1cccnc1C(NS(=O)(=O)c1ccc2c(c1)OCCCO2)c1cc2ccccc2o1 (racemic) [Example 26, N-(1-benzofuran-2-yl(3-methyl-2-pyridinyl)methyl)-3,4-dihydro-2H-1,5-benzodioxepine-7-sulfonamide]
EC50 [1]: 190 nM | IC50 [2]: 420 nM

O=S(=O)(NC(c1ncccn1)c1cc2ccccc2o1)c1ccc2c(c1)OCCCO2 (racemic) [Example 29, N-(1-benzofuran-2-yl(2-pyrimidinyl)methyl)-3,4-dihydro-2H-1,5-benzodioxepine-7-sulfonamide]
EC50 [1]: 990 nM | IC50 [2]: 1800 nM

COc1cccnc1C(NS(=O)(=O)c1ccc2c(c1)OCCCO2)c1cc2ccccc2o1 (racemic) [Example 30, N-(1-benzofuran-2-yl(3-methoxy-2-pyridinyl)methyl)-3,4-dihydro-2H-1,5-benzodioxepine-7-sulfonamide]
EC50 [1]: 150 nM | IC50 [2]: 310 nM

O=S(=O)(NC(c1cc2ccccc2o1)c1cccs1)c1ccc2c(c1)OCCCO2 (racemic) [Example 31, N-(1-benzofuran-2-yl(2-thiophenyl)methyl)-3,4-dihydro-2H-1,5-benzodioxepine-7-sulfonamide]
EC50 [1]: 740 nM | IC50 [2]: 3200 nM

Cc1ccsc1C(NS(=O)(=O)c1ccc2c(c1)OCCCO2)c1cc2ccccc2o1 (racemic) [Example 33, N-(1-benzofuran-2-yl(3-methyl-2-thiophenyl)methyl)-3,4-dihydro-2H-1,5-benzodioxepine-7-sulfonamide]
EC50 [1]: 1200 nM | IC50 [2]: 1400 nM

O=S(=O)(NC(c1cc2ccccc2o1)c1nccs1)c1ccc2c(c1)OCCCO2 (racemic) [Example 34, N-(1-benzofuran-2-yl(1,3-thiazol-2-yl)methyl)-3,4-dihydro-2H-1,5-benzodioxepine-7-sulfonamide]
EC50 [1]: 2800 nM | IC50 [2]: 6600 nM

O=S(=O)(NC(c1ccccc1)c1cc2ccccc2o1)c1ccc2c(c1)OCC(F)CO2 (racemic) [Example 35, N-(1-benzofuran-2-yl(phenyl)methyl)-3-fluoro-3,4-dihydro-2H-1,5-benzodioxepine-7-sulfonamide]
EC50 [1]: 3100 nM | IC50 [2]: 2300 nM

Cc1ccccc1C(NS(=O)(=O)c1ccc2c(c1)OCCCO2)c1cc2ccccc2s1 (racemic) [Example 36, N-(1-benzothiophen-2-yl(2-methylphenyl)methyl)-3,4-dihydro-2H-1,5-benzodioxepine-7-sulfonamide]
EC50 [1]: 150 nM | IC50 [2]: 290 nM

CCc1ccccc1C(NS(=O)(=O)c1ccc2c(c1)OCCCO2)c1cc2ccccc2s1 (racemic) [Example 37, N-(1-benzothiophen-2-yl(2-ethylphenyl)methyl)-3,4-dihydro-2H-1,5-benzodioxepine-7-sulfonamide]
EC50 [1]: 160 nM | IC50 [2]: 300 nM

C=Cc1ccccc1C(NS(=O)(=O)c1ccc2c(c1)OCCCO2)c1cc2ccccc2s1 (racemic) [Example 38, N-(1-benzothiophen-2-yl(2-ethenylphenyl)methyl)-3,4-dihydro-2H-1,5-benzodioxepine-7-sulfonamide]
EC50 [1]: 31 nM | IC50 [2]: 25 nM

C#Cc1ccccc1C(NS(=O)(=O)c1ccc2c(c1)OCCCO2)c1cc2ccccc2s1 (racemic) [Example 39, N-(1-benzothiophen-2-yl(2-ethynylphenyl)methyl)-3,4-dihydro-2H-1,5-benzodioxepine-7-sulfonamide]
EC50 [1]: 37 nM | IC50 [2]: 17 nM

COc1ccccc1C(NS(=O)(=O)c1ccc2c(c1)OCCCO2)c1cc2ccccc2s1 (racemic) [Example 40, N-(1-benzothiophen-2-yl(2-methoxyphenyl)methyl)-3,4-dihydro-2H-1,5-benzodioxepine-7-sulfonamide]
EC50 [1]: 46 nM | IC50 [2]: 110 nM
